{"source": "patent US20230041138A1", "about": "“TREATMENT OF HIS HYPORESPONDERS” (NewAmsterdam Pharma B.V. (Dutch Registration No. 55971946), priority 2021, published 2023)", "key": {"[1]": {"assay": "Phase 2 study: PK follow-up, plasma obicetrapib concentrations after end of treatment", "type": "in vivo, human", "procedure": "The screening period for this study took up to 2-weeks. Afterwards patients were randomized to placebo, 5 mg obicetrapib or 10 mg obicetrapib for an 8-week treatment period. After the treatment period, patients continued for a 4-week safety follow-up and a 15-week PK follow-up.\n(§1) The primary outcome measure was LDL-C (percent change). Secondary outcome measures included ApoB, Non-HDL-C and HDL-C (percent change). The Intent-to-Treat (ITT) Population included all participants randomized into the study. The Modified ITT (mITT) Population included all participants in the ITT Population who receive at least 1 dose of any study drug and have a baseline value for the LDL-C assessment. The Safety Population included all participants who receive at least 1 dose of any study drug. The mITT Population was the primary population for the efficacy analyses. The primary efficacy analysis of the percent change in LDL-C was performed using a mixed model for repeated measures (MMRM) approach. In order to maintain the overall Type I error rate, the secondary efficacy endpoints were tested sequentially at the 0.05 significance level according to the pre-specified order of hierarchy. All safety endpoints were summarized descriptively. No statistical inference was applied to the safety endpoints. Plasma obicetrapib concentrations were summarized with descriptive statistics based on the […]."}, "[2]": {"assay": "Phase 2 study of obicetrapib as adjunct to high-intensity statin therapy: safety and tolerability (adverse events)", "type": "in vivo, human", "conditions": "for AEs, total: subjects, number (%): on top of high-intensity statin; for Subjects reporting treatment-emergent adverse events: safety population", "procedure": "Patients were randomly assigned to receive one of the three treatments investigative treatments. All treatments were to be taken once daily with food for 8 weeks. Safety was assessed throughout the trial by monitoring adverse events and concomitant medication use, 12-lead electrocardiograms (ECGs), vital signs, laboratory safety assessments and physical examinations. Additional assessments included salivary cortisol, plasma aldosterone, high-sensitivity C-reactive protein (hsCRP) and endothelin 1.\nSafety and tolerability profiles of obicetrapib assessed by clinical laboratory values and incidence of adverse events (AEs).\nas §1"}, "[3]": {"conditions": "either obicetrapib treatment group (5 mg, 10 mg)"}}, "data": [{"smiles": "CCOC(=O)N1c2ccc(C(F)(F)F)cc2[C@@H](N(Cc2cc(C(F)(F)F)cc(C(F)(F)F)c2)c2ncc(OCCCC(=O)O)cn2)C[C@H]1CC", "note": "[Obicetrapib, (2R,4S)-4-{[3,5-bis(trifluoromethyl)benzyl]-[5-(3-carboxypropoxy)pyrimidin-2-yl]amino}-2-ethyl-6-trifluoromethyl-3,4-dihydro-2H-quinoline-1-carboxylic acid ethyl ester]", "values": [{"measurement": "Plasma obicetrapib levels, median decrease after end-of-treatment", "setting": "[1]; 5 mg group, 4 weeks after end-of-treatment", "result": 92, "unit": "%"}, {"measurement": "Plasma obicetrapib levels, median decrease after end-of-treatment", "setting": "[1]; 5 mg group, 8 weeks after end-of-treatment", "result": 98, "unit": "%"}, {"measurement": "Plasma obicetrapib levels, median decrease after end-of-treatment", "setting": "[1]; 5 mg group, 15 weeks after end-of-treatment", "result": 99, "unit": "%"}, {"measurement": "Plasma obicetrapib levels, median decrease after end-of-treatment", "setting": "[1]; 10 mg group, 4 weeks after end-of-treatment", "result": 93, "unit": "%"}, {"measurement": "Plasma obicetrapib levels, median decrease after end-of-treatment", "setting": "[1]; 10 mg group, 8 weeks after end-of-treatment", "result": 98, "unit": "%"}, {"measurement": "Plasma obicetrapib levels, median decrease after end-of-treatment", "setting": "[1]; 10 mg group, 15 weeks after end-of-treatment", "result": 99, "unit": "%"}, {"measurement": "Tolerability and safety profile", "setting": "[2]; 5 mg and 10 mg on top of high intensity statin therapy", "result": "well tolerated with a safety profile similar to placebo"}, {"measurement": "Subjects reporting events considered study drug related", "setting": "[2]; 5 mg group", "result": 2, "unit": "subjects"}, {"measurement": "AEs, related: number of events", "setting": "[2]; 5 mg group (N = 40)", "result": 2, "unit": "events"}, {"measurement": "AEs, related: subjects, number (%)", "setting": "[2]; 5 mg group (N = 40)", "result": "2 (5.0)"}, {"measurement": "AEs, severe", "setting": "[2]; 5 mg group (N = 40)", "result": 0}, {"measurement": "AEs, total: number of events", "setting": "[2]; 5 mg group (N = 40)", "result": 24, "unit": "events"}, {"measurement": "Deaths", "setting": "[2]; 5 mg group (N = 40)", "result": 0}, {"measurement": "SAEs, related", "setting": "[2]; 5 mg group (N = 40)", "result": 0}, {"measurement": "SAEs, total", "setting": "[2]; 5 mg group (N = 40)", "result": 0}, {"measurement": "TEAEs leading to discontinuation of study drug", "setting": "[2]; 5 mg group (N = 40)", "result": 0}, {"measurement": "TESAEs leading to discontinuation of study", "setting": "[2]; 5 mg group (N = 40)", "result": 0}, {"measurement": "AEs, total: subjects, number (%)", "setting": "[2]; 5 mg group (N = 40)", "result": "13 (32.5)"}, {"measurement": "Adverse events: Basal cell carcinoma", "setting": "[2]; 5 mg group (n = 40)", "result": "0 (0.0) n (%)"}, {"measurement": "Adverse events: Fatigue", "setting": "[2]; 5 mg group (n = 40)", "result": "2 (5.0) n (%)"}, {"measurement": "Adverse events: Gastrointestinal disorders", "setting": "[2]; 5 mg group (n = 40)", "result": "3 (7.5) n (%)"}, {"measurement": "Adverse events: General disorders and administration site conditions", "setting": "[2]; 5 mg group (n = 40)", "result": "3 (7.5) n (%)"}, {"measurement": "Adverse events: Hypertension", "setting": "[2]; 5 mg group (n = 40)", "result": "2 (5.0) n (%)"}, {"measurement": "Adverse events: Infections and infestations", "setting": "[2]; 5 mg group (n = 40)", "result": "1 (2.5) n (%)"}, {"measurement": "Adverse events: Injury, poisoning and procedural complications", "setting": "[2]; 5 mg group (n = 40)", "result": "3 (7.5) n (%)"}, {"measurement": "Adverse events: Investigations", "setting": "[2]; 5 mg group (n = 40)", "result": "2 (5.0) n (%)"}, {"measurement": "Adverse events: Metabolism and nutrition disorders", "setting": "[2]; 5 mg group (n = 40)", "result": "2 (5.0) n (%)"}, {"measurement": "Adverse events: Muscle spasms", "setting": "[2]; 5 mg group (n = 40)", "result": "0 (0.0) n (%)"}, {"measurement": "Adverse events: Musculoskeletal and connective tissue disorders", "setting": "[2]; 5 mg group (n = 40)", "result": "4 (10.0) n (%)"}, {"measurement": "Adverse events: Nausea", "setting": "[2]; 5 mg group (n = 40)", "result": "1 (2.5) n (%)"}, {"measurement": "Adverse events: Neoplasms benign, malignant and unspecified (including cysts and polyps)", "setting": "[2]; 5 mg group (n = 40)", "result": "0 (0.0) n (%)"}, {"measurement": "Adverse events: Nervous system disorders", "setting": "[2]; 5 mg group (n = 40)", "result": "2 (5.0) n (%)"}, {"measurement": "Adverse events: Respiratory, thoracic and mediastinal disorders", "setting": "[2]; 5 mg group (n = 40)", "result": "2 (5.0) n (%)"}, {"measurement": "Adverse events: Type 2 diabetes mellitus", "setting": "[2]; 5 mg group (n = 40)", "result": "2 (5.0) n (%)"}, {"measurement": "Adverse events: Vascular disorders", "setting": "[2]; 5 mg group (n = 40)", "result": "2 (5.0) n (%)"}, {"measurement": "Subjects reporting treatment-emergent adverse events", "setting": "[2]; 5 mg group", "result": 15, "unit": "subjects"}, {"measurement": "Subjects reporting events considered study drug related", "setting": "[2]; 10 mg group", "result": 1, "unit": "subject"}, {"measurement": "AEs, related: number of events", "setting": "[2]; 10 mg group (N = 40)", "result": 1, "unit": "events"}, {"measurement": "AEs, related: subjects, number (%)", "setting": "[2]; 10 mg group (N = 40)", "result": "1 (2.5)"}, {"measurement": "AEs, severe", "setting": "[2]; 10 mg group (N = 40)", "result": 0}, {"measurement": "AEs, total: number of events", "setting": "[2]; 10 mg group (N = 40)", "result": 11, "unit": "events"}, {"measurement": "Deaths", "setting": "[2]; 10 mg group (N = 40)", "result": 0}, {"measurement": "SAEs, related", "setting": "[2]; 10 mg group (N = 40)", "result": 0}, {"measurement": "SAEs, total", "setting": "[2]; 10 mg group (N = 40)", "result": 0}, {"measurement": "TEAEs leading to discontinuation of study drug", "setting": "[2]; 10 mg group (N = 40)", "result": 0}, {"measurement": "TESAEs leading to discontinuation of study", "setting": "[2]; 10 mg group (N = 40)", "result": 0}, {"measurement": "AEs, total: subjects, number (%)", "setting": "[2]; 10 mg group (N = 40)", "result": "8 (20.0)"}, {"measurement": "Adverse events: Basal cell carcinoma", "setting": "[2]; 10 mg group (n = 40)", "result": "0 (0.0) n (%)"}, {"measurement": "Adverse events: Fatigue", "setting": "[2]; 10 mg group (n = 40)", "result": "1 (2.5) n (%)"}, {"measurement": "Adverse events: Gastrointestinal disorders", "setting": "[2]; 10 mg group (n = 40)", "result": "0 (0.0) n (%)"}, {"measurement": "Adverse events: General disorders and administration site conditions", "setting": "[2]; 10 mg group (n = 40)", "result": "2 (5.0) n (%)"}, {"measurement": "Adverse events: Hypertension", "setting": "[2]; 10 mg group (n = 40)", "result": "0 (0.0) n (%)"}, {"measurement": "Adverse events: Infections and infestations", "setting": "[2]; 10 mg group (n = 40)", "result": "0 (0.0) n (%)"}, {"measurement": "Adverse events: Injury, poisoning and procedural complications", "setting": "[2]; 10 mg group (n = 40)", "result": "1 (2.5) n (%)"}, {"measurement": "Adverse events: Investigations", "setting": "[2]; 10 mg group (n = 40)", "result": "0 (0.0) n (%)"}, {"measurement": "Adverse events: Metabolism and nutrition disorders", "setting": "[2]; 10 mg group (n = 40)", "result": "0 (0.0) n (%)"}, {"measurement": "Adverse events: Muscle spasms", "setting": "[2]; 10 mg group (n = 40)", "result": "0 (0.0) n (%)"}, {"measurement": "Adverse events: Musculoskeletal and connective tissue disorders", "setting": "[2]; 10 mg group (n = 40)", "result": "4 (10.0) n (%)"}, {"measurement": "Adverse events: Nausea", "setting": "[2]; 10 mg group (n = 40)", "result": "0 (0.0) n (%)"}, {"measurement": "Adverse events: Neoplasms benign, malignant and unspecified (including cysts and polyps)", "setting": "[2]; 10 mg group (n = 40)", "result": "0 (0.0) n (%)"}, {"measurement": "Adverse events: Nervous system disorders", "setting": "[2]; 10 mg group (n = 40)", "result": "2 (5.0) n (%)"}, {"measurement": "Adverse events: Respiratory, thoracic and mediastinal disorders", "setting": "[2]; 10 mg group (n = 40)", "result": "0 (0.0) n (%)"}, {"measurement": "Adverse events: Type 2 diabetes mellitus", "setting": "[2]; 10 mg group (n = 40)", "result": "0 (0.0) n (%)"}, {"measurement": "Adverse events: Vascular disorders", "setting": "[2]; 10 mg group (n = 40)", "result": "0 (0.0) n (%)"}, {"measurement": "Subjects reporting treatment-emergent adverse events", "setting": "[2]; 10 mg group", "result": 8, "unit": "subjects"}, {"measurement": "Laboratory parameters (chemistry, hematology, urinalysis) compared with placebo", "setting": "[2]; [3]", "result": "no clinically meaningful shifts in chemistry, hematology or urinalysis parameters"}, {"measurement": "Vital signs compared with placebo", "setting": "[2]; [3]", "result": "no changes in vital signs"}]}]}
